Laboratory results taken from patent US4001325A, “α-Chloroacetanilide selective herbicides” (Diamond Shamrock Corporation, priority 1973, dated 1977).

Columns and labels:
Yellow Foxtail [1] = experiment: Example 17 selective herbicidal activity in corn crop, weed kill; type: in vivo, Setaria lutescens; details: Setaria, 3-4 weeks after planting
Description: (§1) This example illustrates the selective herbicidal activity of two of the presently preferred compounds of this invention against various weed species in a corn crop.
(§2) Plots of light sandy soil, cleared of all weeds, are uniformly treated with aqueous dispersions prepared from an emulsifiable concentrate containing 2- 4 pounds of active ingredient per gallon. Diluted aqueous dispersions are applied as surface treatments at 2.0, 1.0, 0.5, and 0.25 pound of active ingredient per acre (lb/A).
(§3) The treated test plots are sown to corn and with seeds of the following weed species:
(§4) Three to four weeks after planting, the degree of damage to both the corn stands and the weed plants is assessed from a rating of 0% (no injury) to 100% (complete destruction).

Corn = experiment: Example 18 phytotoxic effects on crop stands in different soils; type: in vivo, field corn
Protocol: (§5) To further illustrate the herbicidal activity of compounds of this invention in different types of soil as would be encountered in different crop growing localities, a preemergence herbicide test is conducted generally as outlined previously herein. Two light sandy soils are employed containing 0.7% and 1.8% organic matter (O.M.), respectively, along with two loam-type, heavier soils containing either 2.0% or 5-5.5% organic matter (O.M.).
(§6) The test plots are all sprayed uniformly with formulations of the test compounds providing 2.0, 1.0, 0.5, and 0.25 pound of active chemical per acre (lb/A).
(§7) Prior to treatment, the soil plots are sown to field corn, soybean, and grain sorghum crops and seeds of barnyard-grass and yellow foxtail.
(§8) Three weeks after planting, the percent control of plant growth is rated from 0% (no injury) to 100% (total destruction). The results obtained are as follows:
(§9) Phytotoxic effects on the crop stands are similarly rated with the following results: […]

Cotton = experiment: Field preemergence test, phytotoxic effects on crop; type: in vivo, cotton (Coker 413)
Description: (§10) Test plots of fertilized, light sandy soil containing 0.7% organic matter are sprayed uniformly with aqueous suspensions prepared from emulsifiable concentrates containing 12%, by weight, of the test chemicals diluted to provide dosage rates of the test compounds corresponding to 2.0, 1.0, 0.5, and 0.25 pound per acre (lb/A). The plots are then sown with seeds of the following crop plants: sweet corn, cotton (Coker 413) and soybeans, var. Davis. Seeds of the following weed plants are planted: redroot pigweed, prickly sida, common lambsquarter, goosegrass and giant foxtail.
(§11) Three to four weeks after planting, percent control (plant kill) of the test plants is estimated, from a rating of 0 which denotes no injury to the plant up to 100 which denotes complete destruction. The herbicidal action of the test compounds obtained on the weed species is as follows:
(§12) Phytotoxic effects observed on the crop species is estimated with results as follows: […]

Soybeans [2] = experiment: as above; type: in vivo, var. Davis
Description: as §10, §11, §12

Velvetleaf = experiment: Example 17 selective herbicidal activity in corn crop, weed kill; type: in vivo; details: Abutilon theophrasti, 3-4 weeks after planting
Description: as §1, §2, §3, §4

Fall Panicum = experiment: as above; type: in vivo; details: Panicum dichotomiflorum, 3-4 weeks after planting
Description: as §1, §2, §3, §4

Johnsongrass = experiment: as above; type: in vivo; details: Sorghum halepense, 3-4 weeks after planting
Description: as §1, §2, §3, §4

Yellow Foxtail [3] = experiment: Example 18 preemergence herbicide test in different soils, % control; type: in vivo; details: three weeks
Protocol: as §5, §6, §7
Three weeks after planting, the percent control of plant growth is rated from 0% (no injury) to 100% (total destruction).

Soybeans [4] = experiment: Example 18 phytotoxic effects on crop stands in different soils; type: in vivo, soybean
Protocol: as §5, §6, §7, §8, §9

Giant Foxtail = experiment: Field preemergence test, weed control; type: in vivo; details: 3-4 weeks after planting
Description: as §10
(§13) Three to four weeks after planting, percent control (plant kill) of the test plants is estimated, from a rating of 0 which denotes no injury to the plant up to 100 which denotes complete destruction. The herbicidal action of the test compounds obtained on the weed species is as follows: […]

Redroot Pigweed = experiment: Field preemergence test, weed control; type: in vivo; details: 3-4 weeks after planting
Description: as §10, §13

Common Lambsquarter = experiment: Field preemergence test, weed control; type: in vivo; details: 3-4 weeks after planting
Description: as §10, §13

[5] = 0.5 lb/A, Heavy Soil 5-5.5% O.M.
[6] = 0.5 lb/A, Medium Soil 2.0% O.M.
[7] = 1.0 lb/A, Heavy Soil 5-5.5% O.M.
[8] = 1.0 lb/A, Medium Soil 2.0% O.M.
[9] = 2.0 lb/A, Heavy Soil 5-5.5% O.M.
[10] = 2.0 lb/A, Medium Soil 2.0% O.M.

Q: What does the source list for `C#CCN(C(=O)CCl)c1c(C)cccc1CC` [Example 15, 2-Chloro-2'-methyl-6'-ethyl-N-propargylacetanilide]?
A: mortality at 280.212 g/ha (Yellow Foxtail [1]; 0.25 lb/A): 82%; mortality at 560.425 g/ha (Yellow Foxtail [1]; 0.5 lb/A): 97%; mortality at 1120.85 g/ha (Yellow Foxtail [1]; 1.0 lb/A): 100%; mortality at 2241.7 g/ha (Yellow Foxtail [1]; 2.0 lb/A): 100%; % Phytotoxicity, Corn (Corn; [5]): 0%; % Phytotoxicity, Corn (Corn; [6]): 0%; % Phytotoxicity, Corn (Corn; 0.5 lb/A, Sand 0.7% O.M.): 0%; % Phytotoxicity, Corn (Corn; 0.5 lb/A, Sand 1.8% O.M.): 0%; % Phytotoxicity, Corn (Corn; [7]): 0%; % Phytotoxicity, Corn (Corn; [8]): 10%; % Phytotoxicity, Corn (Corn; 1.0 lb/A, Sand 0.7% O.M.): 0%; % Phytotoxicity, Corn (Corn; 1.0 lb/A, Sand 1.8% O.M.): 0%; % Phytotoxicity, Corn (Corn; [9]): 10%; % Phytotoxicity, Corn (Corn; [10]): 55%; % Phytotoxicity, Corn (Corn; 2.0 lb/A, Sand 0.7% O.M.): 10%; % Phytotoxicity, Corn (Corn; 2.0 lb/A, Sand 1.8% O.M.): 0%; % Crop Kill, Cotton (Cotton; 0.5 lb/A): 0%; % Crop Kill, Cotton (Cotton; 1.0 lb/A): 6%; % Crop Kill, Cotton (Cotton; 2.0 lb/A): 13%; % Crop Kill, Soybeans (Soybeans [2]; 0.5 lb/A): 0%; % Crop Kill, Soybeans (Soybeans [2]; 1.0 lb/A): 3%; % Crop Kill, Soybeans (Soybeans [2]; 2.0 lb/A): 13%; mortality at 280.212 g/ha (Velvetleaf; 0.25 lb/A): 0%; mortality at 560.425 g/ha (Velvetleaf; 0.5 lb/A): 27%; mortality at 1120.85 g/ha (Velvetleaf; 1.0 lb/A): 37%; mortality at 2241.7 g/ha (Velvetleaf; 2.0 lb/A): 80%; mortality at 280.212 g/ha (Fall Panicum; 0.25 lb/A): 78%; mortality at 560.425 g/ha (Fall Panicum; 0.5 lb/A): 96%; mortality at 1120.85 g/ha (Fall Panicum; 1.0 lb/A): 97%; mortality at 2241.7 g/ha (Fall Panicum; 2.0 lb/A): 100%; mortality at 280.212 g/ha (Johnsongrass; 0.25 lb/A): 0%; mortality at 560.425 g/ha (Johnsongrass; 0.5 lb/A): 73%; mortality at 1120.85 g/ha (Johnsongrass; 1.0 lb/A): 100%; mortality at 2241.7 g/ha (Johnsongrass; 2.0 lb/A): 100%; % Control, Yellow Foxtail (Yellow Foxtail [3]; [5]): 98%; % Control, Yellow Foxtail (Yellow Foxtail [3]; [6]): 100%; % Control, Yellow Foxtail (Yellow Foxtail [3]; 0.5 lb/A, Sand 0.7% O.M.): 45%; % Control, Yellow Foxtail (Yellow Foxtail [3]; 0.5 lb/A, Sand 1.8% O.M.): 30%; % Control, Yellow Foxtail (Yellow Foxtail [3]; [7]): 100%; % Control, Yellow Foxtail (Yellow Foxtail [3]; [8]): 100%; % Control, Yellow Foxtail (Yellow Foxtail [3]; 1.0 lb/A, Sand 0.7% O.M.): 65%; % Control, Yellow Foxtail (Yellow Foxtail [3]; 1.0 lb/A, Sand 1.8% O.M.): 65%; % Control, Yellow Foxtail (Yellow Foxtail [3]; [9]): 100%; % Control, Yellow Foxtail (Yellow Foxtail [3]; [10]): 100%; % Control, Yellow Foxtail (Yellow Foxtail [3]; 2.0 lb/A, Sand 0.7% O.M.): 90%; % Control, Yellow Foxtail (Yellow Foxtail [3]; 2.0 lb/A, Sand 1.8% O.M.): 85%; % Phytotoxicity, Soybeans (Soybeans [4]; [5]): 0%; % Phytotoxicity, Soybeans (Soybeans [4]; [6]): 0%; % Phytotoxicity, Soybeans (Soybeans [4]; 0.5 lb/A, Sand 0.7% O.M.): 0%; % Phytotoxicity, Soybeans (Soybeans [4]; 0.5 lb/A, Sand 1.8% O.M.): 0%; % Phytotoxicity, Soybeans (Soybeans [4]; [7]): 0%; % Phytotoxicity, Soybeans (Soybeans [4]; [8]): 0%; % Phytotoxicity, Soybeans (Soybeans [4]; 1.0 lb/A, Sand 0.7% O.M.): 0%; % Phytotoxicity, Soybeans (Soybeans [4]; 1.0 lb/A, Sand 1.8% O.M.): 0%; % Phytotoxicity, Soybeans (Soybeans [4]; [9]): 0%; % Phytotoxicity, Soybeans (Soybeans [4]; [10]): 0%; % Phytotoxicity, Soybeans (Soybeans [4]; 2.0 lb/A, Sand 0.7% O.M.): 0%; % Phytotoxicity, Soybeans (Soybeans [4]; 2.0 lb/A, Sand 1.8% O.M.): 0%; % Weed Control, Giant Foxtail (Giant Foxtail; 0.25 lb/A): 47%; % Weed Control, Giant Foxtail (Giant Foxtail; 0.5 lb/A): 78%; % Weed Control, Giant Foxtail (Giant Foxtail; 1.0 lb/A): 97%; % Weed Control, Giant Foxtail (Giant Foxtail; 2.0 lb/A): 100%; % Weed Control, Redroot Pigweed (Redroot Pigweed; 0.25 lb/A): 65%; % Weed Control, Redroot Pigweed (Redroot Pigweed; 0.5 lb/A): 89%; % Weed Control, Redroot Pigweed (Redroot Pigweed; 1.0 lb/A): 100%; % Weed Control, Redroot Pigweed (Redroot Pigweed; 2.0 lb/A): 100%; % Weed Control, Common Lambsquarter (Common Lambsquarter; 0.25 lb/A): 95%; % Weed Control, Common Lambsquarter (Common Lambsquarter; 0.5 lb/A): 98%; % Weed Control, Common Lambsquarter (Common Lambsquarter; 1.0 lb/A): 100%; % Weed Control, Common Lambsquarter (Common Lambsquarter; 2.0 lb/A): 100%
